Laboratory results from PMC2876208 (Cancer, 2010).
Structures can show the parent of a compound that is named as a salt.

Tests used:
[1] = Phase 1 dose-escalation study: safety, adverse events; assay type: in vivo
Ph-positive CML or ALL = test: Phase 1 study: cytogenetic and hematologic response; assay type: in vivo, human
[2] = Phase 1 study: pharmacokinetics in patients; assay type: in vivo, human; conditions: for half-life: Mean half-life
[3] = cited from earlier work
Bcr-Abl F317L = conditions: cited from earlier work
Bcr-Abl F317V = conditions: cited from earlier work
Lyn kinase = conditions: cited from earlier work
[4] = target: other Src-family member kinases; conditions: cited from earlier work
[5] = 30 mg/kg dose level, 4-week; ref data on file, 24; cited from earlier work
unmutated Bcr-Abl = conditions: cited from earlier work
CML = conditions: newly diagnosed patients with CML-CP; cited from earlier work

Cc1ccc(NC(=O)c2ccc(CN3CC[C@H](N(C)C)C3)c(C(F)(F)F)c2)cc1Nc1nccc(-c2cncnc2)n1 [INNO-406]
Adverse events, NCI category infection ([1]; % of patients, N = 56): 33.9%
Deaths since beginning treatment ([1]; all related to leukemia progression): Five
Adverse events, NCI category blood/bone marrow ([1]; human, in vivo): 25.0%
Adverse events, NCI category cardiac general ([1]; human, in vivo): 12.5%
Adverse events, NCI category constitutional symptoms ([1]; human, in vivo): 48.2%
Adverse events, NCI category dermatology/skin ([1]; human, in vivo): 28.6%
Adverse events, NCI category gastrointestinal ([1]; human, in vivo): 64.3%
Adverse events, NCI category hemorrhage/bleeding ([1]; human, in vivo): 10.7%
Adverse events, NCI category lymphatics ([1]; human, in vivo): 25.0%
Adverse events, NCI category metabolic/laboratory ([1]; human, in vivo): 73.2%
Adverse events, NCI category musculoskeletal/soft tissue ([1]; human, in vivo): 10.7%
Adverse events, NCI category neurology ([1]; human, in vivo): 23.2%
Adverse events, NCI category pain ([1]; human, in vivo): 58.9%
Adverse events, NCI category pulmonary/upper respiratory ([1]; human, in vivo): 17.9%
Drug-related acute renal failure ([1]; human, in vivo): 2 (4) No. (%)
Drug-related elevated creatinine ([1]; human, in vivo): 1 (2) No. (%)
Drug-related hypertension ([1]; human, in vivo): 1 (2) No. (%)
Drug-related hyperuricemia ([1]; human, in vivo): 1 (2) No. (%)
Drug-related increased ALT ([1]; human, in vivo): 9 (16) No. (%)
Drug-related increased GGT ([1]; human, in vivo): 2 (4) No. (%)
Drug-related increased bilirubin ([1]; human, in vivo): 2 (4) No. (%)
Drug-related intrahepatic cholestasis ([1]; human, in vivo): 1 (2) No. (%)
Drug-related prolonged QTc interval ([1]; human, in vivo): 1 (2) No. (%)
Drug-related thrombocytopenia ([1]; human, in vivo): 1 (2) No. (%)
Grade 3 thrombocytopenia, drug- and non-drug-related ([1]; human, in vivo): 2 patients
Grade 4 thrombocytopenia, drug- and non-drug-related ([1]; human, in vivo): 3 patients
QTc >500 msec ([1]; human, in vivo): 1 patient
QTcB increased to grade 2 ([1]; human, in vivo): 4 patients
QTcF increased to grade 2 ([1]; human, in vivo): 1 patient
Pleural or pericardial effusions ([1]; in vivo): No cases
Recommended phase 2 dose based on DLT and MTD ([1]; orally BID): 240 mg
Minimal-Minor Cytogenetic Response (Ph-positive CML or ALL; 60 mg QD, N = 3): 1 (33) n (%)
Complete Cytogenetic Response (Ph-positive CML or ALL; 120 mg BID, N = 6): 1 (17) n (%)
Complete Cytogenetic Response (Ph-positive CML or ALL; 120 mg QD, N = 6): 1 (17) n (%)
Complete Cytogenetic Response (Ph-positive CML or ALL; 240 mg BID, N = 17): 1 (6) n (%)
Partial Cytogenetic Response (Ph-positive CML or ALL; 240 mg BID, N = 17): 2 (12) n (%)
Minimal-Minor Cytogenetic Response (Ph-positive CML or ALL; 360 mg BID, N = 7): 1 (14) n (%)
Partial Cytogenetic Response (Ph-positive CML or ALL; 480 mg BID, N = 5): 1 (20) n (%)
Response in patients with T315I mutations (Ph-positive CML or ALL; 4 patients with T315I mutations): None
Complete Cytogenetic Response (Ph-positive CML or ALL; Total, all doses, N = 56): 3 (5) n (%)
Minimal-Minor Cytogenetic Response (Ph-positive CML or ALL; Total, all doses, N = 56): 2 (4) n (%)
Partial Cytogenetic Response (Ph-positive CML or ALL; Total, all doses, N = 56): 3 (5) n (%)
Complete and partial hematologic responses (Ph-positive CML or ALL; all doses): 3 patients
Major cytogenetic response rate (Ph-positive CML or ALL; all patients enrolled (6 of 56 patients)): 11%
Major cytogenetic responses (Ph-positive CML or ALL; patients treated with doses of 240 mg BID or greater): 4
Responses (Ph-positive CML or ALL; patients with CML-AP, CML-BP, or Ph-positive ALL): No responses
Major cytogenetic response rate (Ph-positive CML or ALL; patients with CML-CP (6 of 31 patients)): 19%
Major cytogenetic responses (Ph-positive CML or ALL; patients with CML-CP, all doses): 6 patients
Mean time to achieve peak concentration ([2]; 240 mg BID cohort, SD = 0.5): 1.3 h
Mean (SD) accumulation factor ([2]; BID dosing): 2.73 (4.96)
Accumulation ([2]; day 15, 360 and 480 mg BID cohorts): accumulation of INNO-406 was observed
Dose proportionality of Cmax and AUC ([2]; entire study population, for AUC not demonstrable with BID dosing): dose proportional
Cmax ([2]; human, in vivo, oral, 240 mg): 487 ng/mL
half-life ([2]; human, in vivo, oral, BID dosing, day 1, SD 0.817): 1.99 h
half-life ([2]; human, in vivo, oral, BID dosing, day 15, SD 0.751): 2.28 h
In vivo potency relative to imatinib [3]: at least 10 times
Sensitivity of mutation in vitro (Bcr-Abl F317L): sensitive
Sensitivity of mutation in vitro (Bcr-Abl F317V): sensitive
Kinase activity (Lyn kinase): specific Lyn kinase activity
Kinase activity [4]: no or limited activity
Deaths [5]: no deaths occurred
Inhibition of autophosphorylation relative to imatinib (unmutated Bcr-Abl): more potently inhibited

Cc1ccc(NC(=O)c2ccc(CN3CCN(C)CC3)cc2)cc1Nc1nccc(-c2cccnc2)n1 [imatinib, imatinib mesylate]
Estimated 5 to 7-year survival rates (CML): over 90%
